Assay results reported in patent publication US20110152166A1, “METHOD OF MODULATION OF PROTEIN PHOSPHORYLATION-DEPENDENT CONFORMATIONAL TRANSITIONS WITH LOW MOLECULAR WEIGHT COMPOUNDS” (priority 2006, published 2011).
Substitutions are numbered along the chain they refer to. Ends that are not written are not given here.

Experiments:
Experiment in all cases: PDK1 activity assay with T308tide
Assay type in all cases: biochemical
GST-PDK1 [Gln150Met] = target: T1, GST-PDK1 [Gln150Met] (Homo sapiens, UniProt O15530, Q150M)
T1 construct: different protein constructs, comprising the full length protein or the catalytic domain alone; made in house; host or cells: HEK293 cells (pEBG-2T-PDK1 mutant)
T1 sequence (O15530 1-556 Q150M): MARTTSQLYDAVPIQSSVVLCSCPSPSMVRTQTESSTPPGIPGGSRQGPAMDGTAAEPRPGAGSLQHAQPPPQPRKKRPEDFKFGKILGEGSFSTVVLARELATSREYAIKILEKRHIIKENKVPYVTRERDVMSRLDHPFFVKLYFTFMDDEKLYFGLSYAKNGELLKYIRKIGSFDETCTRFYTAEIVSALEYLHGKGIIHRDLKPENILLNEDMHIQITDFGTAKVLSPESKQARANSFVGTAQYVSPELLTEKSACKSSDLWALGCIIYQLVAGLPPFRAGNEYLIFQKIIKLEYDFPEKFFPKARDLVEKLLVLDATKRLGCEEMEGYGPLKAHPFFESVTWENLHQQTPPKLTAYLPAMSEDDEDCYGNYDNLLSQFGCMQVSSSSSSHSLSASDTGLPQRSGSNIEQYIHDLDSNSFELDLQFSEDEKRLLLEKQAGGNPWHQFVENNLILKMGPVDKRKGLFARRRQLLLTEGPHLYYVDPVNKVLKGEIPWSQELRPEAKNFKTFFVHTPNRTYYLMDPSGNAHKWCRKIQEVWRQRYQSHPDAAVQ

GST-PDK1 [Val124Leu] = target: T2, GST-PDK1 [Val124Leu] (Homo sapiens, UniProt O15530, V124L)
T2 construct: different protein constructs, comprising the full length protein or the catalytic domain alone; made in house; host or cells: HEK293 cells (pEBG-2T-PDK1 mutant)
T2 sequence (O15530 1-556 V124L): T1 sequence (O15530 1-556 Q150M) with V124L, M150Q

GST-PDK1 [Phe157Met] = target: T3, GST-PDK1 [Phe157Met] (Homo sapiens, UniProt O15530, F157M)
T3 construct: different protein constructs, comprising the full length protein or the catalytic domain alone; made in house; host or cells: HEK293 cells (pEBG-2T-PDK1 mutant)
T3 sequence (O15530 1-556 F157M): T1 sequence (O15530 1-556 Q150M) with M150Q, F157M

| Molecule | AC50 (GST-PDK1 [Gln150Met]) [µM] | Max. activity (GST-PDK1 [Gln150Met]) [U/mg] | AC50 (GST-PDK1 [Val124Leu]) [µM] | Max. activity (GST-PDK1 [Val124Leu]) [U/mg] | AC50 (GST-PDK1 [Phe157Met]) [µM] | Max. activity (GST-PDK1 [Phe157Met]) [U/mg] |
| --- | --- | --- | --- | --- | --- | --- |
| O=C(O)CSC(CC(=O)c1ccc(Cl)cc1)c1ccccc1 (stereo not drawn) [Compound 1] | 177 ± 64 | 2.28 ± 0.26 | 180 ± 60 | 1.1 ± 0.13 | 140 ± 100 | 0.9 ± 0.3 |
| REPRILSEEEQEMFRDFDYIADWC [PIFtide, reference compound] | 0.86 ± 0.25 | 2.11 ± 0.15 | 0.35 ± 0.2 | 0.59 ± 0.04 | 1.52 ± 0.59 | 1.7 ± 0.24 |
